Data on one molecule can be found in article PMC7168207, “Dibasic Derivatives of Phenylcarbamic Acid as Prospective Antibacterial Agents Interacting with Cytoplasmic Membrane” (Antibiotics, 2020).

What all share (assay): synergy with antibiotics (FIC index, checkerboard)
Common to all, as to type: cell-based, Enterococcus faecalis

Experiment [1] deals with VRE 725B. To be noted: Enterococcus. From the text:
(§1) Representatives from various classes were chosen in order to study the potential difference in synergistic activity according to the diverse mechanisms of action and resistance of these drugs. The method of minimal fractional inhibitory concentration (FIC) index (FICI) in a microtitration plate was used. FICI ≤ 0.5 means synergy; 0.5 < FICI < 1 means additivity; 1 ≤ FICI < 4 means indifference; and FICI ≥ 4 means antagonism.
The used VRE strains were isolated from American crows by Oravcova et al., and their genetic profiles were characterized. All the VRE strains were carrying genes vanA, tetM, and ermB. Strains VRE 368 and VRE 725B carried gene aac, which provided acquired aminoglycoside resistance.
(§2) For synergy effect study, a method of fractional inhibitory concentration was used. […] Raw H was used for the evaluation of MIC(A); column 12 was used for evaluation of MIC(B). The plate was inoculated by the bacterial suspension to reach final concentration of 5 × 10^5 CFU/mL in the wells. The fractional inhibitory concentration (FIC) index was calculated using the concentrations in the first nonturbid (clear) well found in each row and column along the turbidity/nonturbidity interface. To interpret the combined effect, the lowest FICI was used. A ΣFIC ≤ 0.5 means synergy; 0.5 < ΣFIC < 1 means additivity; 1 ≤ ΣFIC < 4 means indifference; and ΣFIC ≥ 4 means antagonism. The tests were made in duplicate, and the results were averaged.

Experiment [2] relates to VRE 368. To be noted: Enterococcus, VRE, VRE 368; tested compound/antibiotic; read-out: MIC of each antibacterial drug alone observed in the synergy experiment.
Excerpt: as §1, §2

The test system of experiment [3] is VRE 342B. The settings on record: VRE 342B.
Excerpt: as §1, §2

With `CNC(C)C1CCC(N)C(OC2C(N)CC(N)C(OC3OCC(C)(O)C(NC)C3O)C2O)O1` (stereo not shown) [GEN, gentamicin, reference compound], the MIC was more than 2000 µg/mL in experiment [1]; 64 µg/mL in experiment [2]; 32 µg/mL in experiment [3] (Enterococcus, tested compound/antibiotic, read-out: MIC of each antibacterial drug alone observed in the synergy experiment). Also, in experiment [3] (in the combination of that line), the “concentrations of the tested compound/clinically used antibiotic providing additivity or synergy” value came to 8 µg/mL.
